Laboratory results published in patent EP0039388A2, “Diagnostic method for the determination of the liver function” (Röhm Pharma GmbH, priority 1980, dated 1981).
“Also recorded” adds a separate entry of the source. Read-outs that look alike come from different tables or passages of the source.

What was measured:
Assay type in all cases: in vivo, Menschen
[1] = Ratio of TA to OH-TA-Ester in plasma and/or urine after oral administration of triamterene (liver function test); conditions: for Verhältnis des OH-TA-Esters zu TA: printed as (x):1
Description: Es wurde gefunden, daß sich Einschränkungen der Leberfunktion mit sehr geringem Aufwand und mit großer diagnostischer und analytischer Sicherheit nachweisen lassen, wenn man 2,4,7-Triamino-6-phenylpteridin (Triamteren = TA) dem Patienten oral verabreicht und in geeignetem zeitlichen Abstand das Verhältnis TA zu OH-TA-Ester im Plasma und/oder im Urin des Patienten bestimmt. Bei normaler Leberfunktion beträgt das Verhältnis TA zu OH-TA-Ester 1:3 bis 1:10. […] Man findet demnach je nach Einschränkung der Leberfunktion mehr natives TA als OH-TA-Ester, was als eine direkte Auswirkung der gestörten Funktion der Leber zu metabolischer Umwandlung von körperfremden Stoffen im Organismus und damit als Indikator für die Leberfunktion überhaupt gewertet werden kann.
Die Verabreichung des Triamteren zur erfindungsgemäßen Bestimmung der Leberfunktionseinschränkung geschieht oral. Bei der Herstellung der Verabreichungsformen (Kapseln, Tabletten etc.) und der Verabreichung selbst, kann von den Erfahrungen mit Triamteren als Therapeutikum ausgegangen werden. Die zur Durchführung des erfindungsgemäßen diagnostischen Verfahrens benötigten Mengen an Triamteren können innerhalb gewisser Grenzen schwanken, beispielsweise zwischen 50 und 300 mg, vorzugsweise bis 100 mg. Zur Einhaltung standardisierter Bedingungen kann es zweckmäßig sein, gleichbleibende Quantitäten an Triamteren zu verabreichen. Dabei kann vorteilhaft von bereits auf dem Markt befindlichen Handelsformen (z. B. Kapseln mit 50 mg Triamteren Jatropur^R) Gebrauch gemacht werden.
(§1) Bei dem Test wurde darauf geachtet, daß die Versuchspersonen der gleichen Altersgruppe und dem gleichen Geschlecht angehörten und eine annähernd gleiche Nierenfunktion vorlag. Während der Versuchsperiode waren sie stationär aufgenommen und unterlagen denselben Ernährungsbedingungen. Außer den unumgänglich notwendigen, wurden alle anderen Medikamente, insbesondere Diuretika vor Versuchsbeginn abgesetzt.
Die Plasmahalbwertszeiten wurden nach der Formel t50 % = [formula] berechnet, die Flächen unter den Kurven konnten mit Hilfe der Trapezregel errechnet werden. […]

[2] = Urinary excretion of TA and OH-TA-Ester after oral triamterene
Description: as §1
Die Durchführung des erfindungsgemäßen diagnostischen Verfahrens kann ebenfalls mit dem Urin der Patienten erfolgen. Während einer Versuchsdauer von 5 Tagen konnte TA und der OH-TA-Ester nachgewiesen werden.
Analog kann auch die Konzentration von TA und OH-TA-Ester im Urin bestimmt werden.

[3] = Plasma half-lives of TA and OH-TA-Ester after oral triamterene; conditions: for half-life: human, plasma, po, read-out: Plasmahalbwertszeiten (converted)
Description: as §1
Die Plasmahalbwertszeiten wurden nach der Formel t50 % = [formula] berechnet, die Flächen unter den Kurven konnten mit Hilfe der Trapezregel errechnet werden.
Die Plasmaproben werden mit dem doppelten Volumen Methanol verdünnt, das ausfallende Protein ausgefällt. Vom Überstand wird ein definierter Anteil auf Kieselgel-Platten (z. B. Kieselgel-60-Fertigplatten "Merck") ohne Fluoresz.enzindi- kator aufgetragen. Anschließend wird mit dem Fließmittel Essigsäureethylester/Methanol/Ammoniak 25 %ig (60 + 30 + 10) bei Kammersättigung chromatographiert. Danach werden die Platten getrocknet und die Substanzen fluoreszenzspektroskopisch gemessen.

Row | Ausscheidung im Harn beendet ([2]; in vivo) [Stunden] | Ausscheidung im Harn nicht völlig abgeschlossen ([2]; in vivo) [Tagen] | half-life ([3]; Lebergesunde) [h] | half-life ([3]; Leberzirrhotiker, average) [h] | Structure (SMILES) | Verhältnis des OH-TA-Esters zu TA ([1]; Lebergesunde) | Verhältnis des OH-TA-Esters zu TA ([1]; Leberzirrhotiker, ratio reversed in one cirrhotic) | Konzentration des OH-TA-Esters in Plasma höher als die der nativen Substanz Triamteren (TA) ([1]; subjects with healthy liver, plasma, fold over TA) | Ausscheidung im Harn beendet ([2]; Lebergesunde, time after which excretion has ended) [Stunden] | Ausscheidung im Harn nicht völlig abgeschlossen ([2]; Leberzirrhotiker, excretion still not fully complete at this time) [Tagen] | Nachweis im Urin ([2]; patients' urine, test duration of 5 days) | Plasmahalbwertszeiten, change in Leberzirrhotiker versus Lebergesunde ([3]; Leberzirrhotiker compared with Lebergesunde)
1 |  |  |  |  | Nc1nc(N)c2nc(-c3ccc(OS(=O)(=O)O)cc3)c(N)nc2n1 [OH-TA-Ester] | 4-10 | 1-3,2 | vier- bis zwölffache | 72 | > 5 | nachgewiesen | auf das Doppelte verlängert; also recorded: deutlich erhöht, beispielsweise verdoppelt
2 | 72 | > 5 | ~5.5 | 11.2 | Nc1nc(N)c2nc(-c3ccccc3)c(N)nc2n1 [TA, 2,4,7-Triamino-6-phenylpteridin] |  |  |  |  |  |  | 
